Experimental data as given in US20070244009A1, “Agent for Inhibiting Bolting Induction and/or Floral-Bud Differentiation in Plants” (National University Corporation Hokkaido Universit, priority 2004, published 2007).
Entries after “also recorded” stand apart in the source; their conditions may differ.

Tests used:
[1] = system: spinach (Spinacia oleracea L.); test: Floral differentiation of spinach after foliar spraying; format: in vivo; conditions: 10^-3 M foliar spray; for Floral Differentiation Rate (%) Average: mean of three tests
Experimental: (§1) In other words, while they searched for the substance having bolting induction inhibition and/or floral differentiation inhibition activities, they examine the effect of theobroxide on stem elongation and differentiation of floral-buds in spinach (long-day plant), after spraying theobroxide on the surfaces of spinach leaves. The day-length conditions examined were long-day (16 hours-light period, 8 hours-dark period), and short-day (10 hours-light period, 14 hours-dark period). The concentration of theobroxide for foliar application is set at 10^−3 M, and testing was started after a preliminary growth (two weeks, long-day condition). The spraying condition was that 5 ml of the solution was sprayed over four weeks every two days after the preliminary growth. As the results, under the short-day condition (bolting non-inducing condition), no difference was observed when compared to the control. Under the long-day condition (bolting induction and floral differentiation condition), the stem elongation of the theobroxide treated plants was suppressed 37% in the fourth week, when compared to that of the control.
(§2) Before the test, spinach was grown for 5 weeks in a growth chamber (NK Systems, Biotron NC350), under a short-day (SD) condition (light period-10 hours/dark period-14 hours) with a peat moss/Pearlite mixture (1:1.5, v/v). A test solution was sprayed on leaves every two days. Water and Hyponex in liquid form (manufactured by Hyponex Japan Co.) were given to the plants every two days and once a week, respectively. The long-day (LD) and short-day (SD) photoperiodic cycles were 16-hour light period/8-hour dark period, and 10-hours light period/14-hour dark period, respectively. The growth chamber was equipped with 20 fluorescent lamps (NEC FL40SEX-N-HG) to provide a light intensity of 90 μmol^−2s^−1, and set at 25 degrees centigrade and the relative humidity of 60%. The test used ten plants for each processing, and was repeated at least three times.
(§3) The theobroxide for the test was isolated from the incubation filtrate of Lasiodiplodia theobromae. The data of NMR, RI and MS were compared with the standard one and their structures were confirmed. Theobroxide was dissolved in distilled water that includes Tween 20 (100 ppm) to adjust its concentration to 10^−3M. To the plants for the control, the same amount of distilled water including 100 ppm of Tween 20 was given. The two kinds of solution were given to leaves of the plants, the total of 5 ml per plant, every two days, using plastic spray bottles. After planting them in advance, 20 boxes were transferred to the LD condition for a LD treatment (10 boxes of which was for control, and the other 10 boxes for the theobroxide treatment). After planting them in advance, 20 boxes were left under the SD for a SD treatment as before (10 boxes of which is for the control, and the other 10 boxes for theobroxide treatment). Stem heights from the bases of stems to the tip of the stems or the inflorescence were measured (Plant Physiol.: 821-827,1971).
In addition, in the tests shown in Table 1, plants were grown under a long-day condition for six weeks. The theobroxide treatment was started after they were transferred to the long-day condition. After six weeks, the plants were collected, and the number of the plants in which floral differentiation took place was counted.

[2] = system: spinach (Spinacia oleracea L.); test: Stem elongation (bolting) of spinach after foliar spraying; format: in vivo
Experimental: as §1, §2
as §3, with “After planting them in advance, 20 boxes were transferred to the LD condition for a LD treatment (10 boxes of which was for control, and the other 10 boxes for the theobroxide treatment). After planting them in advance, 20 boxes were left under the SD for a SD treatment as before (10 boxes of which is for the control, and the other 10 boxes for theobroxide treatment).” left out

morning glory [3] = conditions: in vivo; cited from earlier work
potato [4] = conditions: culture of a single node section of a potato stem; cited from earlier work
morning glory [5] = conditions: solution sprayed to leaves of morning glory, non-inducing conditions; cited from earlier work
potato [6] = conditions: solution sprayed to leaflets of potato, non-inducing conditions; cited from earlier work

CC1=CC(O)C2OC2C1O (stereo not shown) [theobroxide, 3,6-dihydroxy-4,5-epoxy-1-methylcyclohexene]
Floral Differentiation Rate (%) Test 1 ([1]; long-day condition, six weeks, Test 1): 50% (5/10) | Floral Differentiation Rate (%) Test 2 ([1]; long-day condition, six weeks, Test 2): 40% (4/10) | Floral Differentiation Rate (%) Average ([1]; long-day condition, six weeks): 43.3% | Floral Differentiation Rate (%) Average ([1]; long-day condition, six weeks, listed as Theobroxide): 43.3% | difference in flower formation compared to the control ([1]; short-day condition): no difference; also recorded: not apparent difference | stem elongation (FIGS. 3A-B, FIG. 4), result in words ([2]; induction condition (LD), theobroxide treatment): stem elongation was suppressed | suppression effect on stem lengths compared to the control ([2]; long-day (LD) condition, 10^-3 M foliar spray, after six weeks): 37% | suppression of stem elongation compared to the control ([2]; long-day condition, 10^-3 M foliar spray, 5 ml every two days, fourth week): 37% | difference in stem lengths compared to the control ([2]; short-day condition (bolting non-inducing), 10^-3 M foliar spray): no difference; also recorded: not apparent difference | effect on stem elongation of morning glory (morning glory [3]): inhibitory effect | potato tuber formation activity (potato [4]): strong potato tuber formation activity | flower buds inducing activity (morning glory [5]): flower buds inducing activity | potato tuber formation (potato [6]): strong potato tuber formation
